Laboratory results as given in patent US20230066011A1, “PYRROLOPYRIMIDINE DERIVATIVE, AND PHARMACEUTICAL COMPOSITION FOR PREVENTING OR TREATING PROTEIN KINASE-RELATED DISEASE COMPRISING SAME AS ACTIVE INGREDIENT” (VORONOI CO., LTD., priority 2019, published 2023).
pIC50: −log10 of the molar value.

Key:
Assay type in all cases: biochemical
LRRK2 = LRRK2 (Homo sapiens, UniProt Q5S007); assay: LRRK2 enzyme inhibition, ADP-Glo kinase assay; set-up: purchased Invitrogen PR8604B; conditions: ATP 10 μM
Experimental: To evaluate an inhibitory activity of the compound according to the present invention against LRRK2, LRRK2 (G2019S), DYRK1, CLK1, and TTK kinases, experiments were performed as follows.
Each of the Example compounds was reacted with a purified human LRRK2 (Invitrogen #PR8604B) enzyme to evaluate an ability to inhibit an enzyme using a method as described below. A composition of 40 mM Tris-HCl (pH 7.4), 20 mM MgCl2, 0.5 mg/mL BSA, and 50 μM DTT was used as a reaction buffer, and all reactions of test substances were performed in the reaction buffer. Each of the compounds was diluted […] from a 10 mM DMSO stock using a serial dilution method, and enzyme activities were measured at final compound concentrations of 50, 10, 2, 0.4, 0.08, 0.016, 0.0032, 0.00064, 0.000128, 0.0000256, 0.00000512, and 0.000001024 μM. In the test, purified ATP (10 μM) and an enzyme substrate (0.2 μg) were reacted with a human LRRK2 (25 ng) enzyme at 25° C. for 2 hours, and the enzyme activities were determined using an in vitro ADP-Glo™ kinase assay (Promega). An enzyme-activity reaction solution, an ADP-Glo reaction solution, and an enzyme-ability detection solution were reacted at a ratio of 2:2:1 to measure a degree of inhibition of the enzyme activity with luminescence. The degree of inhibition of the enzyme activity according to the treatment concentration of each of the compounds was calculated based on the fluorescence of the enzyme activity of the solvent control which was not treated with the compound. In this case, the concentration of each of the compounds inhibiting 50% of the enzyme activity was determined to be an IC50 (nM) value, and calculated using Prism (Version 5.01; GraphPad) software.

LRRK2 (G2019S) = LRRK2 (G2019S) (Homo sapiens, UniProt Q5S007, G2019S); assay: LRRK2 G2019S enzyme inhibition, ADP-Glo kinase assay; set-up: purchased SignalChem L10-12GG; conditions: ATP 25 μM
Procedure, shortened: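 Purified human LRRK2 G2019S (16 ng) with 25 μM ATP and 0.2 μg substrate, 2 h at 25° C. in Tris-HCl pH 7.4, MgCl2, BSA, DTT buffer; compounds at 12 final concentrations, 50 μM down to 0.000001024 μM. ADP-Glo luminescence versus solvent control gave IC50.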

human GST-DYRK1A = target: T1, human GST-DYRK1A (Homo sapiens, UniProt Q13627); assay: GST-DYRK1A enzyme inhibition, ADP-Glo kinase assay; conditions: ATP 10 μM, GST-DYRK1A full length, read-out: DYRK1 IC50
T1 construct: purified human GST-DYRK1A (full length, Thermo Scientifics) enzyme; purchased Thermo Scientifics
Procedure, shortened: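 Full-length human GST-DYRK1A (10 ng) with 10 μM ATP and specific substrate in 40 mM Tris-HCl pH 7.4, 20 mM MgCl2, 0.5 mg/mL BSA, 50 μM DTT, 1 h at 25 °C. ADP formation read by ADP-Glo luminescence relative to solvent control; IC50 from three data sets.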

human GST-CLK1 = target: T2, human GST-CLK1 (Homo sapiens, UniProt P49759); assay: GST-CLK1 enzyme inhibition, ADP-Glo kinase assay; conditions: ATP 10 μM, GST-CLK1 129-end
T2 construct: purified human GST-CLK1 (129-end, SignalChem) enzyme; purchased SignalChem
Procedure, shortened: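 Human GST-CLK1 (129-end, 3 ng) reacted with substrate and 10 μM ATP for 1 h at 25° C in 40 mM Tris-HCl pH 7.4, 20 mM MgCl2, 0.5 mg/mL BSA, 50 μM DTT. ADP-Glo luminescence was normalised to solvent control; IC50 (nM) from 3 data sets.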

Sequence of LRRK2 (Q5S007 970-2527 limits assumed): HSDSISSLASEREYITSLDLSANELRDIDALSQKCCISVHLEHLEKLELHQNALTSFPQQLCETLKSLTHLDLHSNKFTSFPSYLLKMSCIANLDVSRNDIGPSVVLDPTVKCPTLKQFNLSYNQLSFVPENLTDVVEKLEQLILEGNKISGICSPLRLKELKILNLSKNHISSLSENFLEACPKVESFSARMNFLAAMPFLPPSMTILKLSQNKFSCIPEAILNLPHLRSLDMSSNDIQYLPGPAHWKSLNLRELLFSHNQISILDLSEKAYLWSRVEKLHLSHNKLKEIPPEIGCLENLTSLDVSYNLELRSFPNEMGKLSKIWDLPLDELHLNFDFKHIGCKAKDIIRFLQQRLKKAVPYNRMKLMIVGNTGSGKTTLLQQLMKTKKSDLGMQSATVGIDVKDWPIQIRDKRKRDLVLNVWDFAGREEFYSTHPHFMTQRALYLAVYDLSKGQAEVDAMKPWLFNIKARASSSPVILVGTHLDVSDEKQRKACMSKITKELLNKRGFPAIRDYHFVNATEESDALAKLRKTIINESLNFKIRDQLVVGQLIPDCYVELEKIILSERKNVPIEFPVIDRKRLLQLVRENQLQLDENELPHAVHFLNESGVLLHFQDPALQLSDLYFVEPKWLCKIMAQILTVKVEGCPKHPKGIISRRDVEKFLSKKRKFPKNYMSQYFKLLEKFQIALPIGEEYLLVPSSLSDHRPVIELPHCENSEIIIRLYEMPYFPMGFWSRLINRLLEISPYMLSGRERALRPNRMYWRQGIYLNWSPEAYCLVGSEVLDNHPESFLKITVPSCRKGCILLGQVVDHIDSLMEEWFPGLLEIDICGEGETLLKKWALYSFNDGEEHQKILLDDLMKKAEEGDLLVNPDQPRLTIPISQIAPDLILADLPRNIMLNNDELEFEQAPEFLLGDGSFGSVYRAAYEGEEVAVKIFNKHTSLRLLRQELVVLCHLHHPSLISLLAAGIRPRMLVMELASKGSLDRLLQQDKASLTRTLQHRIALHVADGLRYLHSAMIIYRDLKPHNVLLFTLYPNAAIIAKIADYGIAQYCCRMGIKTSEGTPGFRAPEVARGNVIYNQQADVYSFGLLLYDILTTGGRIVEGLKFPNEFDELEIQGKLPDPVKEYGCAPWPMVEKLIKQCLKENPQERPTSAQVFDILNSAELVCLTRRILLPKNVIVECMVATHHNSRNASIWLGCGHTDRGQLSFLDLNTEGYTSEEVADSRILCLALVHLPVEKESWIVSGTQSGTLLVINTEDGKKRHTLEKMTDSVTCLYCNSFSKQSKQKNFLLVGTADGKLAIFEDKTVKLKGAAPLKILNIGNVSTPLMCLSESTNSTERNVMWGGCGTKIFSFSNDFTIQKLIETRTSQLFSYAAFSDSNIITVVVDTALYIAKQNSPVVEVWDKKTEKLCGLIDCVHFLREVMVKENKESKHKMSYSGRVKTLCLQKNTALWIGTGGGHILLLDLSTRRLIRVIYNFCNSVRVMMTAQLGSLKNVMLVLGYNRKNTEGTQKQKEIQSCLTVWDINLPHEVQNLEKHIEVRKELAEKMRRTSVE
Sequence of LRRK2 (G2019S) (Q5S007 970-2527 G2019S limits assumed): as the sequence (Q5S007 970-2527 limits assumed) above, with G1050S counted along it
T2 sequence (P49759 129-484 limits assumed): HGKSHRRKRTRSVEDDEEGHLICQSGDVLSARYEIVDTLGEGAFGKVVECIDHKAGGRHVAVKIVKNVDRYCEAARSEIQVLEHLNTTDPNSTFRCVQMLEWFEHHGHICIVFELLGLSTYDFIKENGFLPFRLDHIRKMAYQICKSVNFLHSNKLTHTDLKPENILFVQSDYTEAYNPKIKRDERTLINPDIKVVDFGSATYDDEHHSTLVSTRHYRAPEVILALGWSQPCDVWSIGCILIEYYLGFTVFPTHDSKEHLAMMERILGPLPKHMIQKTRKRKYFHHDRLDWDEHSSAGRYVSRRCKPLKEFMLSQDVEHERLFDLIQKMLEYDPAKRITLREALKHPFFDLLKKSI

Row | SMILES | pIC50 (LRRK2) | pIC50 (LRRK2 (G2019S)) | pIC50 (human GST-DYRK1A) | pIC50 (human GST-CLK1)
1 | CNc1nc(Nc2ccc(C(=O)N3CCOCC3)c3c2OCCO3)nc2[nH]cc(C#N)c12 [Example 118, 4-(methylamino)-2-((8-(morpholine-4-carbonyl)-2,3-dihydrobenzo[b][1,4]dioxin-5-yl)amino)-7H-pyrrolo[2,3-d]pyrimidine-5-carbonitrile] | > 7.00 | > 7.00 | 6.00 to 6.52 | > 7.00
2 | CNc1nc(Nc2ccc(S(=O)(=O)N3CCC(N4CCOCC4)CC3)cc2OC)nc2[nH]cc(C#N)c12 [Example 81, 2-((2-methoxy-4-((4-morpholinopiperidin-1-yl)sulfonyl)phenyl)amino)-4-(methylamino)-7H-pyrrolo[2,3-d]pyrimidine-5-carbonitrile] | > 7.00 | > 7.00 | 6.00 to 6.52 | > 7.00
3 | CNc1nc(Nc2ccc(S(C)(=O)=O)cc2OC)nc2[nH]cc(C(F)(F)F)c12 [Example 163, N^2-(2-methoxy-4-(methylsulfonyl)phenyl)-N^4-methyl-5-(trifluoromethyl)-7H-pyrrolo[2,3-d]pyrimidine-2,4-diamine] | > 7.00 | > 7.00 | 6.52 to 7.00 | 6.00 to 6.52
4 | CCNc1nc(Nc2ccc(C(=O)N3CCOCC3)c3c2OCCO3)nc2[nH]ccc12 [Example 58, (8-((4-(ethylamino)-7H-pyrrolo[2,3-d]pyrimidin-2-yl)amino)-2,3-dihydrobenzo[b][1,4]dioxin-5-yl)(morpholino)methanone 2,2,2-trifluoroacetate] | > 7.00 | > 7.00 | 6.00 to 6.52 | 6.00 to 6.52
5 | CCNc1nc(Nc2ccc(C(=O)N3CCOCC3)c3c2OCCO3)nc2[nH]cc(C(F)(F)F)c12 [Example 156, (8-((4-(ethylamino)-5-(trifluoromethyl)-7H-pyrrolo[2,3-d]pyrimidin-2-yl)amino)-2,3-dihydrobenzo[b][1,4]dioxin-5-yl)(morpholino)methanone 2,2,2-trifluoroacetate] | > 7.00 | > 7.00 | 6.52 to 7.00 | > 7.00
6 | N#Cc1c[nH]c2nc(Nc3ccc(C(=O)N4CCC(N5CCOCC5)CC4)c4c3OCCO4)nc(NC3CCCCC3)c12 [Example 251, 4-(cyclohexylamino)-2-((8-(4-morpholinopiperidine-1-carbonyl)-2,3-dihydrobenzo[b][1,4]dioxin-5-yl)amino)-7H-pyrrolo[2,3-d]pyrimidine-5-carbonitrile] | > 7.00 | > 7.00 | 6.00 to 6.52 | 6.00 to 6.52
7 | CCCNc1nc(Nc2ccc(C(=O)N3CCC(N4CCOCC4)CC3)c3c2OCCO3)nc2[nH]cc(C(F)(F)F)c12 [Example 364, (4-morpholino-piperidin-1-yl)(8-((4-(propylamino)-5-(trifluoromethyl)-7H-pyrrolo[2,3-d]pyrimidin-2-yl)amino)-2,3-dihydrobenzo[b] [1,4]dioxin-5-yl)methanone] | > 7.00 | > 7.00 | > 7.00 | > 7.00
8 | COc1cc(S(=O)(=O)N2CCC(N3CCOCC3)CC2)ccc1Nc1nc(NCCS(C)(=O)=O)c2c(C#N)c[nH]c2n1 [Example 96, 2-((2-methoxy-4-((4-morpholinopiperidin-1-yl)sulfonyl)phenyl)amino)-4-((2-(methylsulfonyl)ethyl)amino)-7H-pyrrolo[2,3-d]pyrimidine-5-carbonitrile] | > 7.00 | > 7.00 | 6.00 to 6.52 | > 7.00
9 | CNc1nc(Nc2ccc(C(=O)N3CCOCC3)c3c2OCCO3)nc2[nH]cc(C(F)(F)F)c12 [Example 155, (8-((4-(methyalmino)-5-(trifluoromethyl)-7H-pyrrolo[2,3-d]pyrimidin-2-yl)amino)-2,3-dihydrobenzo[b][1,4]dioxin-5-yl)(morpholino)methanone 2,2,2-trifluoroacetate] | > 7.00 | > 7.00 | > 7.00 | > 7.00
10 | CNc1nc(Nc2ccc(S(C)(=O)=O)cc2OC)nc2[nH]cc(C#N)c12 [Example 257, 2-((2-methoxy-4-(methylsulfonyl)phenyl)amino)-4-(methylamino)-7H-pyrrolo[2,3-d]pyrimidine-5-carbonitrile] | > 7.00 | > 7.00 | 6.00 to 6.52 | 6.00 to 6.52
11 | CNc1nc(Nc2ccc(C(=O)N3CCOCC3)c3c2OCCO3)nc2[nH]ccc12 [Example 43, (8-((4-(methylamino)-7H-pyrrolo[2,3-d]pyrimidin-2-yl)amino)-2,3-dihydrobenzo[b][1,4]dioxin-5-yl)(morpholino)methanone] | > 7.00 | > 7.00 | 6.00 to 6.52 | 6.00 to 6.52
12 | COc1cc(S(C)(=O)=O)ccc1Nc1nc(NC2CCCC2)c2c(C#N)c[nH]c2n1 [Example 106, 4-(cyclopentylamino)-2-((2-methoxy-4-(methylsulfonyl)phenyl)amino)-7H-pyrrolo[2,3-d]pyrimidine-5-carbonitrile] | > 7.00 | > 7.00 | 6.00 to 6.52 | 6.00 to 6.52
13 | COc1cc(S(C)(=O)=O)ccc1Nc1nc(NC2CCCC2)c2c(C(F)(F)F)c[nH]c2n1 [Example 188, N^4-cyclopentyl-N^2-(2-methoxy-4-(methylsulfonyl)phenyl)-5-(trifluoromethyl)-7H-pyrrolo[2,3-d]pyrimidine-2,4-diamine] | 6.00 to 6.52 | – | 6.00 to 6.52 | 6.00 to 6.52
14 | O=C(c1ccc(Nc2nc(NC3CCCCC3)c3c(C(F)(F)F)c[nH]c3n2)c2c1OCCO2)N1CCOCC1 [Example 190, (8-((4-(cyclohexylamino)-5-(trifluoromethyl)-7H-pyrrolo[2,3-d]pyrimidin-2-yl)amino)-2,3-dihydrobenzo[b][1,4]dioxin-5-yl)(morpholino)methanone] | > 7.00 | – | 6.00 to 6.52 | 6.00 to 6.52
15 | CC(C)Nc1nc(Nc2ccc(C(=O)N3CCC(N4CCOCC4)CC3)c3c2OCCO3)nc2[nH]cc(C#N)c12 [Example 140, 4-(isopropylamino)-2-((8-(4-morpholinopiperidine-1-carbonyl)-2,3-dihydrobenzo[b][1,4]dioxin-5-yl)amino)-7H-pyrrolo[2,3-d]pyrimidine-5-carbonitrile] | > 7.00 | – | 6.00 to 6.52 | > 7.00
16 | CCNc1nc(Nc2ccc(P3(=O)CCN(C4COC4)CC3)cc2OC)nc2[nH]cc(C(F)(F)F)c12 [Example 399, 4-(4-((4-(ethylamino)-5-(trifluoromethyl)-7H-pyrrolo[2,3-d]pyrimidin-2-yl)amino)-3-methoxyphenyl)-1-(oxetan-3-yl)-1,4-azaphosphinane 4-oxide] | > 7.00 | – | > 7.00 | > 7.00
17 | CCNc1nc(Nc2ccc(P3(=O)CCN(CC)CC3)cc2OC)nc2[nH]cc(C#N)c12 [Example 260, 2-((4-(1-ethyl-4-oxido-1,4-azaphosphinan-4-yl)-2-methoxyphenyl)amino)-4-(ethylamino)-7H-pyrrolo[2,3-d]pyrimidine-5-carbonitrile] | > 7.00 | – | 6.52 to 7.00 | 6.52 to 7.00
18 | COc1cc(S(C)(=O)=O)ccc1Nc1nc(NCC2CCCC2)c2c(C#N)c[nH]c2n1 [Example 113, 4-((cyclopentylmethyl)amino)-2-((2-methoxy-4-(methylsulfonyl)phenyl)amino)-7H-pyrrolo[2,3-d]pyrimidine-5-carbonitrile] | > 7.00 | – | 6.00 to 6.52 | 6.00 to 6.52
19 | COc1cc(S(C)(=O)=O)ccc1Nc1nc(C2CC2)c2c(C#N)c[nH]c2n1 [Example 222, 4-cyclopropyl-2-((2-methoxy-4-(methylsulfonyl)phenyl)amino)-7H-pyrrolo[2,3-d]pyrimidine-5-carbonitrile] | > 7.00 | – | 6.00 to 6.52 | 6.00 to 6.52
